Legend:
Format in all cases: functional
[1] = test system: ACHN; experiment: Growth inhibition of human ACHN cells at 10 uM after 48 hrs by sulforhodamine B assay relative to control; details: read-out: GI
[2] = test system: COLO 205; experiment: Growth inhibition of human COLO205 cells at 10 uM after 48 hrs by sulforhodamine B assay relative to control; details: COLO 205, 48 h, read-out: GI
[3] = test system: SK-MEL-28; experiment: Growth inhibition of human SK-MEL-28 cells at 10 uM after 48 hrs by sulforhodamine B assay relative to control; details: SK-MEL-28, 48 h, read-out: GI
[4] = test system: RPMI-8226; experiment: Growth inhibition of human RPMI8226 cells at 10 uM after 48 hrs by sulforhodamine B assay relative to control; details: RPMI-8226, 48 h, read-out: GI
[5] = test system: HOP-62; experiment: Growth inhibition of human HOP62 cells at 10 uM after 48 hrs by sulforhodamine B assay relative to control; details: HOP-62, 48 h, read-out: GI
[6] = test system: HCT-15; experiment: Growth inhibition of human HCT15 cells at 10 uM after 48 hrs by sulforhodamine B assay relative to control; details: HCT-15, 48 h, read-out: GI
[7] = test system: NCI-H460; experiment: Growth inhibition of human NCI-H460 cells at 10 uM after 48 hrs by sulforhodamine B assay relative to control; details: NCI-H460, 48 h, read-out: GI
[8] = test system: OVCAR-8; experiment: Growth inhibition of human OVCAR8 cells at 10 uM after 48 hrs by sulforhodamine B assay relative to control; details: OVCAR-8, 48 h, read-out: GI
[9] = test system: KM12; experiment: Growth inhibition of human KM12 cells at 10 uM after 48 hrs by sulforhodamine B assay relative to control; details: KM12, 48 h, read-out: GI
[10] = test system: SF-295; experiment: Growth inhibition of human SF295 cells at 10 uM after 48 hrs by sulforhodamine B assay relative to control; details: SF-295, 48 h, read-out: GI
[11] = test system: DU-145; experiment: Growth inhibition of human DU145 cells at 10 uM after 48 hrs by sulforhodamine B assay relative to control; details: DU-145, 48 h, read-out: GI
[12] = test system: 786-0; experiment: Growth inhibition of human 786-0 cells at 10 uM after 48 hrs by sulforhodamine B assay relative to control; details: 786-0, 48 h, read-out: GI
[13] = test system: HL-60(TB); experiment: Growth inhibition of human HL-60(TB) cells at 10 uM after 48 hrs by sulforhodamine B assay relative to control; details: HL-60, 48 h, read-out: GI
[14] = test system: NCI-H522; experiment: Growth inhibition of human NCI-H522 cells at 10 uM after 48 hrs by sulforhodamine B assay relative to control; details: NCI-H522, 48 h, read-out: GI
[15] = test system: OVCAR-4; experiment: Growth inhibition of human OVCAR4 cells at 10 uM after 48 hrs by sulforhodamine B assay relative to control; details: OVCAR-4, 48 h, read-out: GI
[16] = test system: HT-29; experiment: Growth inhibition of human HT-29 cells at 10 uM after 48 hrs by sulforhodamine B assay relative to control; details: HT-29, 48 h, read-out: GI
[17] = test system: CAKI-1; experiment: Growth inhibition of human CAKI-1 cells at 10 uM after 48 hrs by sulforhodamine B assay relative to control; details: CAKI-1, 48 h, read-out: GI
[18] = test system: BT-549; experiment: Growth inhibition of human BT549 cells at 10 uM after 48 hrs by sulforhodamine B assay relative to control; details: BT-549, 48 h, read-out: GI
[19] = test system: A549; experiment: Growth inhibition of human A549/ATCC cells at 10 uM after 48 hrs by sulforhodamine B assay relative to control; details: A549, 48 h, read-out: GI
[20] = test system: HCC 2998; experiment: Growth inhibition of human HCC2998 cells at 10 uM after 48 hrs by sulforhodamine B assay relative to control; details: HCC 2998, 48 h, read-out: GI
[21] = test system: HCT-116; experiment: Growth inhibition of human HCT116 cells at 10 uM after 48 hrs by sulforhodamine B assay relative to control; details: HCT-116, 48 h, read-out: GI
[22] = test system: M14; experiment: Growth inhibition of human M14 cells at 10 uM after 48 hrs by sulforhodamine B assay relative to control; details: M14, 48 h, read-out: GI
[23] = test system: MDA-MB-468; experiment: Growth inhibition of human MDA-MB-468 cells at 10 uM after 48 hrs by sulforhodamine B assay relative to control; details: MDA-MB-468, 48 h, read-out: GI
[24] = test system: Malme-3M; experiment: Growth inhibition of human MALME-3M cells at 10 uM after 48 hrs by sulforhodamine B assay relative to control; details: read-out: GI
[25] = test system: CCRF-CEM; experiment: Growth inhibition of human CCRF-CEM cells at 10 uM after 48 hrs by sulforhodamine B assay relative to control; details: read-out: GI
[26] = test system: SK-MEL-5; experiment: Growth inhibition of human SK-MEL-5 cells at 10 uM after 48 hrs by sulforhodamine B assay relative to control; details: SK-MEL-5, 48 h, read-out: GI
[27] = test system: OVCAR-5; experiment: Growth inhibition of human OVCAR5 cells at 10 uM after 48 hrs by sulforhodamine B assay relative to control; details: OVCAR-5, 48 h, read-out: GI
[28] = test system: NCI-H322M; experiment: Growth inhibition of human NCI-H322M cells at 10 uM after 48 hrs by sulforhodamine B assay relative to control; details: read-out: GI
[29] = test system: EKVX; experiment: Growth inhibition of human EKVX cells at 10 uM after 48 hrs by sulforhodamine B assay relative to control; details: read-out: GI
[30] = test system: LOX IMVI; experiment: Growth inhibition of human LOXIMVI cells at 10 uM after 48 hrs by sulforhodamine B assay relative to control; details: read-out: GI
[31] = test system: Hs-578T; experiment: Growth inhibition of human Hs 578T cells at 10 uM after 48 hrs by sulforhodamine B assay relative to control; details: read-out: GI
[32] = test system: RXF 393; experiment: Growth inhibition of human RXF393 cells at 10 uM after 48 hrs by sulforhodamine B assay relative to control; details: RXF 393, 48 h, read-out: GI
[33] = test system: A498; experiment: Growth inhibition of human A498 cells at 10 uM after 48 hrs by sulforhodamine B assay relative to control; details: A498, 48 h, read-out: GI
[34] = test system: NCI-H226; experiment: Growth inhibition of human NCI-H226 cells at 10 uM after 48 hrs by sulforhodamine B assay relative to control; details: NCI-H226, 48 h, read-out: GI
[35] = test system: SNB-19; experiment: Growth inhibition of human SNB19 cells at 10 uM after 48 hrs by sulforhodamine B assay relative to control; details: SNB-19, 48 h, read-out: GI
[36] = test system: MDA-MB-435; experiment: Growth inhibition of human MDA-MB-435 cells at 10 uM after 48 hrs by sulforhodamine B assay relative to control; details: MDA-MB-435, 48 h, read-out: GI
[37] = test system: SF-268; experiment: Growth inhibition of human SF268 cells at 10 uM after 48 hrs by sulforhodamine B assay relative to control; details: SF-268, 48 h, read-out: GI

Measured: inhibition of growth at 10 µM

COc1ccc(/C=C2\Oc3c(c(OC)c4ccoc4c3CN3CCOCC3)C2=O)cc1
56.4 to 65.2%: [1] | [2] | [3] | [4] | [5] | [6] | [7] | [8] | [9] | [10] | [11] | [12] | [13] | [14] | [15] | [16] | [17] | [18] | [19] | [20] | [21] | [22] | [23] | [24] | [25] | [26] | [27] | [28] | [29] | [30] | [31] | [32] | [33] | [34] | [35] | [36] | [37]

— ChEMBL document CHEMBL4613211, “Aurone: A biologically attractive scaffold as anticancer agent” (Eur J Med Chem, 2019)
